The text below walks through data of patent US11325889B2, “Substituted 3-((3-aminophenyl)amino)piperidine-2,6-dione compounds, compositions thereof, and methods of treatment therewith” (Celgene Corporation, priority 2018, dated 2022).

Like-named read-outs stand apart in the source and are kept apart here.

This assay has as its target T1, AR protein in VCaP cells (Homo sapiens, UniProt P10275).
T1 construct: endogenous in cells; host or cells: VCaP cells
T1 sequence (P10275 1-920): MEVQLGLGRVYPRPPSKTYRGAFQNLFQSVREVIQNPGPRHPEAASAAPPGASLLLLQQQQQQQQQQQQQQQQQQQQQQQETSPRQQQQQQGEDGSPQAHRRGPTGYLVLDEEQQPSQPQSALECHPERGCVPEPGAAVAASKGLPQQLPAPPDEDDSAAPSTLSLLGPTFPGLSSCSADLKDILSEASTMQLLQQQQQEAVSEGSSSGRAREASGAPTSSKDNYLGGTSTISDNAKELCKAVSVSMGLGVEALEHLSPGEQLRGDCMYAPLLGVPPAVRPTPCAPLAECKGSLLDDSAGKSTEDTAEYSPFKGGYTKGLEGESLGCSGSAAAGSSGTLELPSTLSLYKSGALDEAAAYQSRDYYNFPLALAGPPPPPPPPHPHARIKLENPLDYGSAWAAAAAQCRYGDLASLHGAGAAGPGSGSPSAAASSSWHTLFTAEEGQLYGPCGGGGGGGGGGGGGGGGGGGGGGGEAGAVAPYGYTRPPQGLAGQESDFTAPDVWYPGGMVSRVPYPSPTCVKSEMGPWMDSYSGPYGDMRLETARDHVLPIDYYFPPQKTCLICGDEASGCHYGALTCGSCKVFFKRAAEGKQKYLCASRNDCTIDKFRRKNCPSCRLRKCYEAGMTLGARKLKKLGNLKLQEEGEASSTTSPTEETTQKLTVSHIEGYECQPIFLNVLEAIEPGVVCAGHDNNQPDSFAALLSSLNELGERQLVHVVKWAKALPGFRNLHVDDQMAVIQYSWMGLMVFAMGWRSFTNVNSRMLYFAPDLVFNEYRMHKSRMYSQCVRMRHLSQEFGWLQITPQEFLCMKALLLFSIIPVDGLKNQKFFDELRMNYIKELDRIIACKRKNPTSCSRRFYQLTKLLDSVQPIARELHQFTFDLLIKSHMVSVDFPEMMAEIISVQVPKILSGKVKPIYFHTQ
Put plainly: VCAP AR Degradation Assay (AR ELISA, 24 h). It is filed as cell-based. Particulars: for Y (lowest measured AR level normalized to DMSO control): AR degradation efficiency; for DC50: concentration of compound when AR level = 50% of DMSO control. In outline: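 VCaP cells in DMEM with 8% FBS exposed for 24 h at 37° C to a 10-point, 1:3 series (final top concentration […]; 0.1% DMSO control). Lysate AR measured by sandwich ELISA and normalized to DMSO as percent of control. DC50, EC50 and lowest AR level (Y) from four-parameter logistic fit.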

Usually DC50 stands for the concentration at which degradation of the target reaches its halfway point. `CCc1cc(N2C(=S)N(c3cnc(C#N)c(C(F)(F)F)c3)C(=O)C2(C)C)ccc1OC1CCN(CC(=O)Nc2cccc(NC3CCC(=O)NC3=O)c2)CC1` (stereo not drawn) [Cmpd 53, 2-(4-(4-(3-(6-cyano-5-(trifluoromethyl)pyridin-3-yl)-5,5-dimethyl-4-oxo-2-thioxoimidazolidin-1-yl)-2-ethylphenoxy)piperidin-1-yl)-N-(3-(2,6-dioxopiperidin-3-ylamino)phenyl)acetamide]: the “Y (lowest measured AR level normalized to DMSO control)” value was “** (25%<Y<=35%)”. In addition, the DC50 (read-out: DC50) is under 100 nM.

As to `CCc1cc(N2C(=S)N(c3cnc(C#N)c(C(F)(F)F)c3)C(=O)C2(C)C)ccc1OCC[C@H]1C[C@H]2CC[C@@H](C1)N2CC(=O)Nc1cccc(NC2CCC(=O)NC2=O)c1` (stereo partly drawn) [Cmpd 65, 2-((1R,3r,5S)-3-(2-(4-(3-(6-cyano-5-(trifluoromethyl)pyridin-3-yl)-5,5-dimethyl-4-oxo-2-thioxoimidazolidin-1-yl)-2-ethylphenoxy)ethyl)-8-azabicyclo[3.2.1]octan-8-yl)-N-(3-(2,6-dioxopiperidin-3-ylamino)phenyl)acetamide], the “Y (lowest measured AR level normalized to DMSO control)” value is given as “* (0<Y<=25%)” and the DC50 was under 100 nM.

Regarding `CCc1cc(N2C(=S)N(c3cnc(C#N)c(C(F)(F)F)c3)C(=O)C23CCC3)ccc1OCCC1CCN([C@H](C)C(=O)Nc2cc(NC3CCC(=O)NC3=O)ccc2F)CC1` (stereo partly drawn) [Cmpd 86, (2R)-2-(4-(2-(4-(7-(6-cyano-5-(trifluoromethyl)pyridin-3-yl)-8-oxo-6-thioxo-5,7-diazaspiro[3.4]octan-5-yl)-2-ethylphenoxy)ethyl)piperidin-1-yl)-N-(5-(2,6-dioxopiperidin-3-ylamino)-2-fluorophenyl)propanamide], the “Y (lowest measured AR level normalized to DMSO control)” value is on record as “* (0<Y<=25%)”. Further, under “read-out: DC50”, the 50% degradation concentration (DC50) lay within 100 to 500 nM.

As to `CCc1cc(N2C(=S)N(c3cnc(C#N)c(C(F)(F)F)c3)C(=O)C23CCC3)ccc1OCCC1CCN(CC(=O)Nc2cccc(NC3CCC(=O)NC3=O)c2)CC1` (stereo not drawn) [Cmpd 29, 2-(4-(2-(4-(7-(6-cyano-5-(trifluoromethyl)pyridin-3-yl)-8-oxo-6-thioxo-5,7-diazaspiro[3.4]octan-5-yl)-2-ethylphenoxy)ethyl)piperidin-1-yl)-N-(3-(2,6-dioxopiperidin-3-ylamino)phenyl)acetamide], the “Y (lowest measured AR level normalized to DMSO control)” value is listed as “* (0<Y<=25%)”. Also, the DC50 (read-out: DC50) is under 100 nM.

On to `CC1(C)C(=O)N(c2ccc(C#N)c(C(F)(F)F)c2)C(=S)N1c1ccc(OCCC2CCN(CC(=O)Nc3cc(Cl)cc(NC4CCC(=O)NC4=O)c3)CC2)c(Cl)c1` (stereo not drawn) [Cmpd 8, 2-(4-(2-(2-chloro-4-(3-(4-cyano-3-(trifluoromethyl)phenyl)-5,5-dimethyl-4-oxo-2-thioxoimidazolidin-1-yl)phenoxy)ethyl)piperidin-1-yl)-N-(3-chloro-5-(2,6-dioxopiperidin-3-ylamino)phenyl)acetamide], for which the “Y (lowest measured AR level normalized to DMSO control)” value was “* (0<Y<=25%)”. Besides, the half-maximal degradation concentration (DC50) (read-out: DC50) is 100 to 500 nM.

In the case of `CCc1cc(N2C(=S)N(c3cnc(C#N)c(C(F)(F)F)c3)C(=O)C23CCC3)ccc1OCCC1CCN(CC(=O)Nc2cccc(NC3CCC(=O)NC3=O)c2)C(C)(C)C1` (single isomer, unassigned) [Cmpd 54], the “Y (lowest measured AR level normalized to DMSO control)” value was “* (0<Y<=25%)”. The DC50 (read-out: DC50) was under 100 nM.

With `CCc1cc(N2C(=S)N(c3ccc(C#N)c(C(F)(F)F)c3)C(=O)C2(C)C)ccc1OCC[C@@H]1CCN(CC(=O)Nc2cccc(NC3CCC(=O)NC3=O)c2)[C@H](C)C1` (stereo partly drawn) [Cmpd 71, 2-((2R,4R)-4-(2-(4-(3-(4-cyano-3-(trifluoromethyl)phenyl)-5,5-dimethyl-4-oxo-2-thioxoimidazolidin-1-yl)-2-ethylphenoxy)ethyl)-2-methylpiperidin-1-yl)-N-(3-(2,6-dioxopiperidin-3-ylamino)phenyl)acetamide], the “Y (lowest measured AR level normalized to DMSO control)” value is recorded as “* (0<Y<=25%)”. The DC50 (read-out: DC50) is under 100 nM.

As to `CCc1cc(N2C(=S)N(c3cnc(C#N)c(C(F)(F)F)c3)C(=O)C2(C)C)ccc1OCCC1CCN([C@H](C)C(=O)Nc2cccc(N[C@@H]3CCC(=O)NC3=O)c2)CC1` [Cmpd 45, (R)-2-(4-(2-(4-(3-(6-cyano-5-(trifluoromethyl)pyridin-3-yl)-5,5-dimethyl-4-oxo-2-thioxoimidazolidin-1-yl)-2-ethylphenoxy)ethyl)piperidin-1-yl)-N-(3-((R)-2,6-dioxopiperidin-3-ylamino)phenyl)propanamide], the “Y (lowest measured AR level normalized to DMSO control)” value was “* (0<Y<=25%)”. The DC50 (read-out: DC50) is under 100 nM.

Turning to `CCc1cc(N2C(=S)N(c3ccc(C#N)c(C(F)(F)F)c3)C(=O)C2(C)C)ccc1OCCC1CCN(CC(=O)Nc2cc(Cl)cc(NC3CCC(=O)NC3=O)c2)CC1` (stereo not drawn) [Cmpd 20, N-(3-chloro-5-(2,6-dioxopiperidin-3-ylamino)phenyl)-2-(4-(2-(4-(3-(4-cyano-3-(trifluoromethyl)phenyl)-5,5-dimethyl-4-oxo-2-thioxoimidazolidin-1-yl)-2-ethylphenoxy)ethyl)piperidin-1-yl)acetamide], the “Y (lowest measured AR level normalized to DMSO control)” value is reported as “* (0<Y<=25%)”. Besides, the half-maximal degradation concentration (DC50) (read-out: DC50) was under 100 nM.

As to `CCc1cc(N2C(=S)N(c3cnc(C#N)c(C(F)(F)F)c3)C(=O)C23CCC3)ccc1OCC[C@H]1C[C@H]2CC[C@@H](C1)N2CC(=O)Nc1cccc(NC2CCC(=O)NC2=O)c1` (single isomer, unassigned) [Cmpd 67], the “Y (lowest measured AR level normalized to DMSO control)” value is listed as “** (25%<Y<=35%)” and the DC50 was under 100 nM.

Take `CCc1cc(N2C(=S)N(c3cnc(C#N)c(C(F)(F)F)c3)C(=O)C2(C)C)ccc1OC1CCN(CC(=O)Nc2cc(NC3CCC(=O)NC3=O)ccc2F)CC1` (stereo not drawn) [Cmpd 52, 2-(4-(4-(3-(6-cyano-5-(trifluoromethyl)pyridin-3-yl)-5,5-dimethyl-4-oxo-2-thioxoimidazolidin-1-yl)-2-ethylphenoxy)piperidin-1-yl)-N-(5-(2,6-dioxopiperidin-3-ylamino)-2-fluorophenyl)acetamide]: the “Y (lowest measured AR level normalized to DMSO control)” value was “*** (35%<Y<50%)”. For the same compound, under “read-out: DC50”, the DC50 lay in the range of 100 to 500 nM.

With `CCc1cc(N2C(=S)N(c3ccc(C#N)c(C(F)(F)F)c3)C(=O)C23CCC3)ccc1OCCC1CCN(CC(=O)Nc2cccc(NC3CCC(=O)NC3=O)c2)CC1` (stereo not drawn) [Cmpd 43, 2-(4-(2-(4-(7-(4-cyano-3-(trifluoromethyl)phenyl)-8-oxo-6-thioxo-5,7-diazaspiro[3.4]octan-5-yl)-2-ethylphenoxy)ethyl)piperidin-1-yl)-N-(3-(2,6-dioxopiperidin-3-ylamino)phenyl)acetamide], the “Y (lowest measured AR level normalized to DMSO control)” value is listed as “* (0<Y<=25%)”. Moreover, the DC50 (read-out: DC50) is under 100 nM.

As to `CCc1cc(N2C(=S)N(c3cnc(C#N)c(C(F)(F)F)c3)C(=O)C23CCC3)ccc1OCC[C@@H]1C[C@H]2CC[C@@H](C1)N2CC(=O)Nc1cccc(NC2CCC(=O)NC2=O)c1` (stereo partly drawn) [Cmpd 68, 2-((1R,3s,5S)-3-(2-(4-(7-(6-cyano-5-(trifluoromethyl)pyridin-3-yl)-8-oxo-6-thioxo-5,7-diazaspiro[3.4]octan-5-yl)-2-ethylphenoxy)ethyl)-8-azabicyclo[3.2.1]octan-8-yl)-N-(3-(2,6-dioxopiperidin-3-ylamino)phenyl)acetamide], the “Y (lowest measured AR level normalized to DMSO control)” value was “* (0<Y<=25%)” and the DC50 was under 100 nM.

Take `CCc1cc(N2C(=S)N(c3cnc(C#N)c(C(F)(F)F)c3)C(=O)C2(C)C)ccc1OCC[C@@H]1C[C@H]2CC[C@@H](C1)N2CC(=O)Nc1cc(Cl)cc(NC2CCC(=O)NC2=O)c1` (stereo partly drawn) [Cmpd 62, N-(3-chloro-5-(2,6-dioxopiperidin-3-ylamino)phenyl)-2-((1R,3s,5S)-3-(2-(4-(3-(6-cyano-5-(trifluoromethyl)pyridin-3-yl)-5,5-dimethyl-4-oxo-2-thioxoimidazolidin-1-yl)-2-ethylphenoxy)ethyl)-8-azabicyclo[3.2.1]octan-8-yl)acetamide]: the “Y (lowest measured AR level normalized to DMSO control)” value is listed as “* (0<Y<=25%)” and the DC50 is under 100 nM.

Regarding `CCc1cc(N2C(=S)N(c3ccc(C#N)c(C(F)(F)F)c3)C(=O)C2(C)C)ccc1OCCC1(F)CCN(CC(=O)Nc2cccc(NC3CCC(=O)NC3=O)c2)CC1` (stereo not drawn) [Cmpd 88, 2-(4-(2-(4-(3-(4-cyano-3-(trifluoromethyl)phenyl)-5,5-dimethyl-4-oxo-2-thioxoimidazolidin-1-yl)-2-ethylphenoxy)ethyl)-4-fluoropiperidin-1-yl)-N-(3-(2,6-dioxopiperidin-3-ylamino)phenyl)acetamide], the “Y (lowest measured AR level normalized to DMSO control)” value is listed as “* (0<Y<=25%)”. Besides, the half-maximal degradation concentration (DC50) (read-out: DC50) is under 100 nM.
